Among the data in ChEMBL document CHEMBL1144535, “3D pharmacophore based virtual screening of T-type calcium channel blockers” (Bioorg Med Chem, 2007) are inhibition, IC50 and Activity values, retold here.

Each structure is given as a SMILES string. The source made the active and inactive calls. The calls are words filed in the database; no cut-off is given here.

Common to all, as to format: cell-based
The target in assay [1] is Voltage-dependent T-type calcium channel subunit alpha-1H (Homo sapiens) (UniProt O95180). The assay can be described thus: Inhibition of alpha-1H T-type calcium channel Cav3.2 expressed in Xenopus unfertilized oocytes at 100 uM by two-electrode voltage clamp method. The conditions noted are these: Oocyte.
Chain of Voltage-dependent T-type calcium channel subunit alpha-1H (Homo sapiens) (O95180 whole entry): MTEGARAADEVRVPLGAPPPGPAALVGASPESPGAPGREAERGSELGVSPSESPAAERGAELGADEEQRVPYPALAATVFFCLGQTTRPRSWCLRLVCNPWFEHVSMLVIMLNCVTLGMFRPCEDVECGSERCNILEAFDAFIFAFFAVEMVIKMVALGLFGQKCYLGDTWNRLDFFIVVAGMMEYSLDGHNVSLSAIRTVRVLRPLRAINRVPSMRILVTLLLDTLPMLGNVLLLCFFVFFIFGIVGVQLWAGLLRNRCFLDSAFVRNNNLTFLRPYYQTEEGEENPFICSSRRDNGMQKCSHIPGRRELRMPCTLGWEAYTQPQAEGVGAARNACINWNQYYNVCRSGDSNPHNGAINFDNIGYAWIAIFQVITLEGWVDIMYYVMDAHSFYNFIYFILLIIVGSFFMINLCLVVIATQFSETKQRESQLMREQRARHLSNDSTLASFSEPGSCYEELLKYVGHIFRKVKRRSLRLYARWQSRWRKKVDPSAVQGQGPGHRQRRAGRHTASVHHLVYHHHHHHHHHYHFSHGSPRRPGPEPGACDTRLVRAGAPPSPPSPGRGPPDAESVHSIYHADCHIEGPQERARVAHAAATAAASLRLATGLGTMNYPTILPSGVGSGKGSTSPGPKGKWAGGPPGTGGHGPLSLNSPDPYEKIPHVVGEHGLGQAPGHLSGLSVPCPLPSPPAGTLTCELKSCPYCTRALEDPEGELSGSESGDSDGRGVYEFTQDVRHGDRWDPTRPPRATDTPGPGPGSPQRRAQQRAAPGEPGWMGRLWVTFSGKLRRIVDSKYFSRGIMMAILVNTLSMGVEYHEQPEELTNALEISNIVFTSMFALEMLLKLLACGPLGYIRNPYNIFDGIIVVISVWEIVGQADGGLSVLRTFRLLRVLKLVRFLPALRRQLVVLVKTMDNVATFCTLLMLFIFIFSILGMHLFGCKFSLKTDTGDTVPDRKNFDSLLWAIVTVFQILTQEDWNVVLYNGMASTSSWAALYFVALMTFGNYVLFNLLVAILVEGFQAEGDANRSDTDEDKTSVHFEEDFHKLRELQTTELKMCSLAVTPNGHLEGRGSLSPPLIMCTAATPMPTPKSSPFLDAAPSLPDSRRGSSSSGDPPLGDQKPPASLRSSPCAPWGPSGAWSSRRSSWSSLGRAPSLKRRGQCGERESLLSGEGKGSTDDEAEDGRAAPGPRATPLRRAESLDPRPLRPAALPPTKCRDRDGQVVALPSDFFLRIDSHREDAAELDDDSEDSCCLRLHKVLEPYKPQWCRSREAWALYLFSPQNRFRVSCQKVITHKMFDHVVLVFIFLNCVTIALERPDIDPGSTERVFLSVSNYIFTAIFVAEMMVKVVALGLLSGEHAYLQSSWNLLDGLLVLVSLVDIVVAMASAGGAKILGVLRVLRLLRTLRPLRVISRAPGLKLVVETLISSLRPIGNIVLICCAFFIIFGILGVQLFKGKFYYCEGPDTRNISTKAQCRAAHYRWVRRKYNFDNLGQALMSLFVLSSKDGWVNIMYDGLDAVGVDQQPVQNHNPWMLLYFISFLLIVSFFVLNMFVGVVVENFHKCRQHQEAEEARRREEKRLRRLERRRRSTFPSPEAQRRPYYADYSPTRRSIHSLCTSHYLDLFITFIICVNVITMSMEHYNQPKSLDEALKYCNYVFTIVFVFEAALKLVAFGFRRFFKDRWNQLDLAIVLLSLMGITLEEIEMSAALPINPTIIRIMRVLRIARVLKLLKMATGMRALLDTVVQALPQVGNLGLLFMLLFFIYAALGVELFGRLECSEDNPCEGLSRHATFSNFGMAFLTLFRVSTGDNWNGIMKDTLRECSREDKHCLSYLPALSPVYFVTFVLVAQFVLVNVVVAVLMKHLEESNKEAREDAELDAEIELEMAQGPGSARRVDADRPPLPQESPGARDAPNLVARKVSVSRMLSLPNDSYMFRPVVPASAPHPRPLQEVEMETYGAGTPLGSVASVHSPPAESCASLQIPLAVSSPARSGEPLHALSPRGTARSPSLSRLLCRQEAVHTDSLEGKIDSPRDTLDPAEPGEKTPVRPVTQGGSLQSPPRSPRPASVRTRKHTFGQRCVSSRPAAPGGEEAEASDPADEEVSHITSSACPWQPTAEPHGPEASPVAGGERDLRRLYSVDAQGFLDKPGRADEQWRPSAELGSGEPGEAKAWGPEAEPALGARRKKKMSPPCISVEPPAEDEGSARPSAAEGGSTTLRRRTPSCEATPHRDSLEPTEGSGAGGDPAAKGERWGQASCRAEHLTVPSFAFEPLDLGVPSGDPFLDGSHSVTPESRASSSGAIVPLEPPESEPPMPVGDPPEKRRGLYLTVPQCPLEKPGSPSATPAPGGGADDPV
The target in assay [2] is T1, Voltage-dependent T-type calcium channel subunit alpha-1G (Homo sapiens, UniProt O43497). The assay can be described thus: Inhibition of alpha-1G T-type calcium channel expressed in HEK293 cells at 10 uM by electrophysiological method.
T1 sequence (O43497 whole entry): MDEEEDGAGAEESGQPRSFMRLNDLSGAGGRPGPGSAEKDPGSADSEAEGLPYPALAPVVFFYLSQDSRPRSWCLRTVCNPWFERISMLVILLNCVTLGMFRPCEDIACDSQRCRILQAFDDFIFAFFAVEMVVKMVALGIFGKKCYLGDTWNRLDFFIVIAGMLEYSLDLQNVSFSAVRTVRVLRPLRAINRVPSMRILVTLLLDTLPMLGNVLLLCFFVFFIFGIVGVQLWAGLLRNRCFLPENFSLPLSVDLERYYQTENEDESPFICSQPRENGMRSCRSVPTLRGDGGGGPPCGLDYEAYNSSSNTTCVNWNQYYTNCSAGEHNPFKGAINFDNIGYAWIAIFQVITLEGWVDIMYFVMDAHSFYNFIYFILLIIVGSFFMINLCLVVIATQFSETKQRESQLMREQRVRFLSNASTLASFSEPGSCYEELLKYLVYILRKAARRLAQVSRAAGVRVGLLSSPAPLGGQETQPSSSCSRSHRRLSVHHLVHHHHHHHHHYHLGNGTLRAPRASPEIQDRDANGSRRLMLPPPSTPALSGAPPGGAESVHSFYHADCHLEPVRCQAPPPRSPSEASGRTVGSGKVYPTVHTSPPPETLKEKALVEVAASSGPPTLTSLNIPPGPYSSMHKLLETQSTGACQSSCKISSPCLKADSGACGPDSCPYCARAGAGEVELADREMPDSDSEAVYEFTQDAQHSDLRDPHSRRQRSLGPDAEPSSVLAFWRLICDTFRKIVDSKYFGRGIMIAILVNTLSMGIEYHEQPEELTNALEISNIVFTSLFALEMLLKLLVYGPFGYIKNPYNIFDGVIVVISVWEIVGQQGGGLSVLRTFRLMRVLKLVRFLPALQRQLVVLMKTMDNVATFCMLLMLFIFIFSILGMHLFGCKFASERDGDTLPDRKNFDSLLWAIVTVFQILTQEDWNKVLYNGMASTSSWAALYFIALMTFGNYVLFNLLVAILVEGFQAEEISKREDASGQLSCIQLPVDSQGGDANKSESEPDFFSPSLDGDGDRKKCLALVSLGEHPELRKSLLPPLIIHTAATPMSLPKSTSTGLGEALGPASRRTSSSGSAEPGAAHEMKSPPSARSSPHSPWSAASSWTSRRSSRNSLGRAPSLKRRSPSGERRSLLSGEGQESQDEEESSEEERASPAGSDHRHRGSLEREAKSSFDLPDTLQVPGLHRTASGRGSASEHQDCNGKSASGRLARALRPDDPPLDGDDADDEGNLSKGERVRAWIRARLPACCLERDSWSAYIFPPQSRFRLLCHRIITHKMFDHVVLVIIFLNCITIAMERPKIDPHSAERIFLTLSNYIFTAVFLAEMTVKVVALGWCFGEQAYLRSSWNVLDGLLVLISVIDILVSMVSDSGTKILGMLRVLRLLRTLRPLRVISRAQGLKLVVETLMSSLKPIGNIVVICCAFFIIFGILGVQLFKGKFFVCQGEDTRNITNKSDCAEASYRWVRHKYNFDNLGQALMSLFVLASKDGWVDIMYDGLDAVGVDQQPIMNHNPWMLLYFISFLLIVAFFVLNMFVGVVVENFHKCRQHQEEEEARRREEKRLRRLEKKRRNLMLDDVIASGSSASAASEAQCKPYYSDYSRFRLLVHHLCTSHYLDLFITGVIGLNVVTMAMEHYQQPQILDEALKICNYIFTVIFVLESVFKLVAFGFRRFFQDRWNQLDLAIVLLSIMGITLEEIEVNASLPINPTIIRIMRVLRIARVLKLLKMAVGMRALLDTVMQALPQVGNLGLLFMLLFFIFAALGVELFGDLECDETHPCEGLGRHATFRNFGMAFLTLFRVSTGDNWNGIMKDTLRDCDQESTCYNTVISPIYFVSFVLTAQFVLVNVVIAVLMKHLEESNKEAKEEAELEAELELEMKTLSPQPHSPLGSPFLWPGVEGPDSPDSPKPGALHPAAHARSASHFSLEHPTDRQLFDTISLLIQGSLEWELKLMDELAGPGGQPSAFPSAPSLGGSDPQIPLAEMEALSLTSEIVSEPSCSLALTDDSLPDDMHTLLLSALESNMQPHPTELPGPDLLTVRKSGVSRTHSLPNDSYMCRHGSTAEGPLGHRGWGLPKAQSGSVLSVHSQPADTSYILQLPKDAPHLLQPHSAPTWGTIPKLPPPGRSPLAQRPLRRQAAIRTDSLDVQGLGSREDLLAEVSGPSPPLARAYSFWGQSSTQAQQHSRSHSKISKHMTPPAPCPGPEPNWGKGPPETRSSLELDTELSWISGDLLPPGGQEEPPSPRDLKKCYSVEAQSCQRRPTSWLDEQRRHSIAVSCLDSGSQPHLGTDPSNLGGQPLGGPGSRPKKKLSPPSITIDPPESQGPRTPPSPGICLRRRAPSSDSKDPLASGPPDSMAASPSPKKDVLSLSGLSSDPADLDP
For assay [3], the target named is T1, Voltage-dependent T-type calcium channel subunit alpha-1G. The assay can be described thus: Inhibition of alpha-1G T-type calcium channel expressed in HEK293 cells by electrophysiological method.
The nature of assay [4]: Inhibition of alpha-1B N-type calcium channel expressed in HEK293 cells by electrophysiological method.

With `O=C1CC(N2CCN(C(c3ccccc3)c3ccc(Cl)cc3)CC2)C(=O)N1c1cccc(Cl)c1` (stereo not given), the inhibition in assay [1] is 16.6%.

With `O=C(NCCCn1ccnc1)c1ccc2c(=O)n(-c3ccccc3)c(=S)[nH]c2c1`, the inhibition in assay [1] amounted to 2.47%.

For `Cc1ccc(C(=O)Oc2ccc(NC3=NS(=O)(=O)c4ccccc43)cc2CN2CCCCC2)cc1`, the inhibition in assay [1] was 13.5%.

Regarding `CCN(CC)CCNC(=O)c1ccc(CNc2nc(=S)[nH]c3ccccc23)cc1`, the inhibition in assay [1] worked out at 9.54%.

Consider `O=C(NCCCN1CCOCC1)c1ccc2c(=O)n(Cc3ccccc3)c(=S)[nH]c2c1`, for which, in assay [1], the inhibition was found to be 15.9%.

With `CN1CCN(C(=O)c2ccc3c(=O)n(Cc4ccc(Cl)cc4)c(=S)[nH]c3c2)CC1`, in assay [2], the inhibition was 51.4%. For the same molecule, the IC50 in assay [3] stood at 11.4 µM.

Turning to `Cc1ccc(N2CCN(CCNCc3cc(-c4ccccc4C(F)(F)F)no3)CC2)c(C)c1`, in assay [3], the IC50 turned out to be 1.53 µM.

For the molecule `O=C(NCCCN1CCOCC1)c1ccc2c(=O)n(-c3cccc(C(F)(F)F)c3)c(=S)[nH]c2c1`, in assay [1], the inhibition was 15.9%.

In the case of `O=C(CN1CCN(C(c2ccccc2)c2ccccc2)CC1)NCc1ccc2c(c1)OCO2`, the inhibition in assay [1] was determined as 12.5%.

Consider `O=C1CC(N2CCN(C(c3ccc(F)cc3)c3ccc(F)cc3)CC2)C(=O)N1c1ccc(Cl)cc1` (stereo not given), for which the inhibition in assay [1] is 51.8%.

`OC(CN1CCN(C(c2ccccc2)c2ccccc2)CC1)Oc1cccc(C(F)(F)F)c1` (stereo not given): the inhibition in assay [1] worked out at 58.3%.

Take `O=C(CN1CCN(C2c3ccccc3-c3ccccc32)CC1)Nc1cc(C(F)(F)F)ccc1Cl`: in assay [1], the outcome was inactive.

For `CN(CCCNC(=O)c1ccc(-n2c(=S)[nH]c3ccc(Br)cc3c2=O)cc1)Cc1ccccc1`, the inhibition in assay [1] was found to be 25.7%.

For `O=C(CCN1C(=O)c2ccccc2C1=O)N1CCN(C(c2ccccc2)c2ccccc2)CC1`, the inhibition in assay [1] was found to be 43.3%.

On to `O=C1c2ccccc2C(=O)N1CCCN1CCN(Cc2c(F)cccc2Cl)CC1`, for which the inhibition in assay [1] stood at 8.1%.

In the case of `CCN(CC)CCOC(=O)c1ccc(N/C=C2/C(=O)NC(=O)N(CCc3ccccc3)C2=O)cc1`, in assay [1], the result was inactive.

For `FC(F)(F)c1cccc(N2CCN(CCNCc3cc(-c4ccccc4C(F)(F)F)no3)CC2)c1`, the 50% inhibitory concentration (IC50) in assay [3] worked out at 1.02 µM.

Turning to `O=C1c2ccccc2C(=O)N1CC#CCN1CCN(C(c2ccccc2)c2ccccc2)CC1`, the outcome in assay [1] was inactive.

Turning to `O=C(NCCCN1CCCCCC1)c1ccc2c(=O)n(Cc3ccc(Cl)cc3)c(=S)[nH]c2c1`, the inhibition in assay [2] amounted to 85.4%. Also, the IC50 worked out at 1.41 µM in assay [3] and 5.8 µM in assay [4].

On to `CCOC(=O)c1cc2c(c(CSc3nc4ccccc4c(=O)n3CCCN3CCCCC3)c1)OCOC2`, for which, in assay [1], the inhibition amounted to 35.3%.

In the case of `CCN(CC)CCOC(=O)c1ccc(NC(=O)c2cc3ccccc3o2)cc1`, the inhibition in assay [1] worked out at 34.4%.

In the case of `O=C(O)c1ccc2c(=O)n(Cc3ccc(CNCCCN4CCN(c5cccc(Cl)c5)CC4)cc3)c(=S)[nH]c2c1`, the inhibition in assay [1] was determined as 11.4%.

Regarding `O=C(CSC1CN(C(c2ccccc2)c2ccccc2)C1)NNC(=O)c1ccc(Cl)cc1`, in assay [1], the inhibition stood at 28.3%.

`Cc1cccc(N2CCN(CC(=O)Nc3ccc(Cl)cc3C(=O)c3ccccc3Br)CC2C)c1` (stereo not given): the inhibition in assay [1] came to 9.23%.

In the case of `COC(=O)c1ccc2c(=O)n(Cc3ccc(C(=O)N4CCC(N5CCCCC5)CC4)cc3)c(=S)[nH]c2c1`, the inhibition in assay [1] came out at 10.3%.

Turning to `CC1CCN(CCCNC(=O)c2ccc3c(=O)n(Cc4ccc(Cl)cc4)c(=S)[nH]c3c2)CC1`, the inhibition in assay [2] was determined as 89.2%. Moreover, the half-inhibitory concentration (IC50) in assay [3] was found to be 1.1 µM; in assay [4], 6.4 µM.

With `FC(F)(F)c1cccc(N2CCN(Cn3nc(-c4ccccc4)n(-c4ccccc4)c3=S)CC2)c1`, the inhibition in assay [1] was 11.4%.

For the molecule `CC1CCN(CCNC(=O)c2ccc(-n3c(=S)[nH]c4ccccc4c3=O)cc2)CC1`, the result in assay [1] was inactive.

Regarding `CN(C)CCNC(=O)c1ccc2c(=O)n(Cc3ccc(Cl)cc3)c(=S)[nH]c2c1`, the inhibition in assay [2] was 43.5%. Further, the half-inhibitory concentration (IC50) in assay [3] came to 53.5 µM.

As for `CN(CCCNC(=O)c1ccc2c(=O)n(Cc3ccc(Cl)cc3)c(=S)[nH]c2c1)Cc1ccccc1`, in assay [2], the inhibition was 37.5%. The half-inhibitory concentration (IC50) in assay [3] worked out at 4.69 µM.

As to `O=C(CN(c1cccc([N+](=O)[O-])c1)S(=O)(=O)c1ccccc1)N1CCN(Cc2ccccc2)CC1`, the inhibition in assay [1] turned out to be 42.5%.

Turning to `CCC1CCCCN1CCCNC(=O)c1ccc2c(=O)n(Cc3ccc(Cl)cc3)c(=S)[nH]c2c1` (stereo not given), the values for the inhibition in assay [2] and in assay [1] were 88.3% and 98.3%, respectively. For the same molecule, the concentration for half-maximal inhibition (IC50) in assay [4] is 2.1 µM.

For the molecule `CCCCN(C)CCNC(=O)c1ccc2c(=O)n(Cc3ccc(Cl)cc3)c(=S)[nH]c2c1`, the inhibition in assay [2] is 34.3%. The IC50 in assay [3] was determined as 11.4 µM.

For `O=S(=O)(c1ccccc1)N(CC(O)CN(Cc1ccccc1)Cc1ccccc1)c1ccccc1` (stereo not given), the inhibition in assay [1] is 15.2%.

In the case of `COc1ccccc1-c1cc(CNCCN2CCN(c3ccc(C)cc3C)CC2)on1`, the 50% inhibitory concentration (IC50) in assay [3] was 2.02 µM.

Turning to `O=C(NCCCN1CCCCC1)c1ccc2c(=O)n(Cc3ccc(Cl)cc3)c(=S)[nH]c2c1`, the inhibition in assay [2] is 34.3%; in assay [1] it was 72.9%. In addition, the IC50 in assay [3] was 2.08 µM; in assay [4], 8.1 µM.

As to `O=[N+]([O-])c1ccccc1S(=O)(=O)N1CCN(Cc2ccccc2Cl)CC1`, in assay [1], the inhibition worked out at 7.57%.

On to `COc1cccc(NC2=C3C(=O)c4ccccc4C4ON=C(C(N5CCN(Cc6cc(Cl)ccc6OC)CC5)=C2)C34)c1` (stereo not given), for which, in assay [1], the inhibition was determined as 16.1%.

`Cc1ccc(CSc2nc3cc(C(=O)NCCCN4CCOCC4)ccc3c(=O)n2-c2ccc(F)cc2)cc1`: the outcome in assay [1] was inactive.

With `O=C1CC(N2CCN(C(c3ccccc3)c3ccccc3)CC2)C(=O)N1c1ccc(Cl)c(C(F)(F)F)c1` (stereo not given), in assay [1], the inhibition is 41.8%.

With `O=S(=O)(c1cccc2nonc12)N1CCN(C(c2ccccc2)c2ccccc2)CC1`, the inhibition in assay [1] is 15.2%.

For the molecule `O=C1CC(N2CCN(C(c3ccc(F)cc3)c3ccc(F)cc3)CC2)C(=O)N1c1ccc(Br)cc1` (stereo not given), the inhibition in assay [1] amounted to 37.1%.

As for `CCN1C(N2CCCCC2)=Nc2ccccc2C1CC(=O)NCc1ccc(NS(=O)(=O)c2ccc(C)cc2)cc1` (stereo not given), the IC50 in assay [3] was found to be 0.96 µM.

Take `O=C(CCN1C(=O)c2ccccc2C1=O)N1CCN(Cc2ccc(Cl)cc2Cl)CC1`: the inhibition in assay [1] was determined as 12%.

For the molecule `O=C(NCCCN1CCCC1)c1ccc2c(=O)n(Cc3ccc(Cl)cc3)c(=S)[nH]c2c1`, the inhibition in assay [2] turned out to be 85.4%; in assay [1] it was 84.1%. For the same molecule, the results for the half-inhibitory concentration (IC50) in assay [3] and in assay [4] were 1.16 µM and 17.2 µM, respectively.

In the case of `CCN(CC)CCNC(=O)c1cn(-c2ccc(Cl)cc2)c(=O)c2ccccc12`, the inhibition in assay [1] came to 13%.

For the molecule `O=C(CCC(=O)Nc1nc(-c2cc3cc(Cl)ccc3oc2=O)cs1)NCCCN1CCCC1`, the inhibition in assay [1] worked out at 43.9%.

As for `CCOC(=O)c1c(C)n(Cc2ccccc2)c2ccc(OCC(O)CN3CCN(Cc4ccccc4)CC3)cc12` (stereo not given), in assay [1], the inhibition was 8.83%.

`COC(=O)c1ccc(S(=O)(=O)N2CCN(C(c3ccccc3)c3ccccc3)CC2)n1C`: in assay [1], the result was inactive.

Consider `CCN1CCN(CCCNC(=O)c2ccc3c(=O)n(Cc4ccc(Cl)cc4)c(=S)[nH]c3c2)CC1`, for which the inhibition in assay [2] came to 78.9%. For the same molecule, the IC50 in assay [3] worked out at 2.53 µM; in assay [4] it was 7.1 µM.

For `CCN(CC)CCNC(=O)c1ccc(NC(=O)c2cn(CC)c3nc(C)ccc3c2=O)cc1`, in assay [1], the inhibition worked out at 41.9%.

Consider `O=C(NCCCn1ccnc1)c1ccc2c(=O)n(-c3ccc(F)c(Cl)c3)c(=S)[nH]c2c1`, for which the outcome in assay [1] was inactive.

`O=C(NCCCN1CCN(c2ccccc2F)CC1)c1ccc(CNc2nc(=S)[nH]c3ccccc23)cc1`: the inhibition entry in assay [1] was “inactive”.

Regarding `CCOC(=O)c1c(NC(=O)c2ccc(S(=O)(=O)N(C)c3ccccc3)cc2)sc2c1CCN(CC)C2`, the inhibition in assay [1] is 22%.

Regarding `CCN1CCN(c2cc(C)c3cc(NC(=O)/C=C/c4cccc(Cl)c4)ccc3n2)CC1`, the outcome in assay [1] was inactive.

With `CCN(CC)CCNC(=O)C1c2ccccc2C(=O)N(Cc2ccc(F)cc2)C1c1ccc(OC)cc1` (stereo not given), the inhibition in assay [1] came out at 52.2%.

`CC1CCN(CCCNC(=O)c2ccc(Cn3c(=S)[nH]c4ccc(Br)cc4c3=O)cc2)CC1`: the inhibition in assay [1] was determined as 62.6%.

For the molecule `CC1CC(C)CN(CCCNc2ccc(C(=O)Nc3ccc(C(F)(F)F)cc3)cc2[N+](=O)[O-])C1` (stereo not given), the inhibition in assay [1] turned out to be 56%.

In the case of `CN(c1ccc(Br)cc1)S(=O)(=O)c1ccc2[nH]cc(C(=O)N3CCN(Cc4ccccc4)CC3)c(=O)c2c1`, the inhibition in assay [1] was 86.5%.

Turning to `O=C(NC1CCN(Cc2ccccc2)CC1)c1ccc2c(=O)n(Cc3ccc(Cl)cc3)c(=S)[nH]c2c1`, in assay [1], the result was inactive.

On to `Cc1ccc(N(CC(O)CN(Cc2ccccc2)Cc2ccccc2)S(=O)(=O)c2ccccc2[N+](=O)[O-])cc1` (stereo not given), for which the inhibition in assay [1] was determined as 34.7%.

`COc1ccccc1-c1cc(CNCCN2CCN(c3cccc(C(F)(F)F)c3)CC2)on1`: the IC50 in assay [3] came out at 2.04 µM.
